Results on seven compounds are retold here after patent publication US8158389B2, “Products and methods for in vivo secretion of monatin” (priority 2005, dated 2012).

Test [1] relates to C. glutamicum ATCC 13032 transformed with aspCProApEKEX-2. The protocol: C. glutamicum ATCC 13032 strains transformed with aspCProApEKEX-2 were grown overnight in LB medium supplemented with 25 μg/mL kanamycin incubated at 37° C. and shaking at 250 rpm. For the experimental treatment flasks, 100 mL of Krämer's A medium was used in each shake flask. Hoischen, C. and Krämer, R., “Evidence for an efflux carrier system involved in the secretion of glutamate by Corynebacterium glutamicum,” Arch. Microbiol 151:342-347, (1989). Krämer's A medium contained (per liter): 5 g (NH4)2SO4, 5 g urea, 2 g KH2PO4, 1.53 g K2HPO4, 0.249 g MgSO4.7H2O, 50 g glucose, 0.01 g FeSO4.7H2O, 0.01 g MnSO4.H2O, 0.01 g CaCl2.2H2O, 0.03 mg ZnSO4.7H2O, 0.1 mg H3BO3, 0.07 mg […], 0.01 mg NiCl2.2H2O, 0.03 mg CuCl2.2H2O, 0.1 mg as Mo^+6 from (NH4)6Mo7O24-4H2O and 1 μg biotin. The pH was adjusted to 7.0.
For treatments, 4.2 v/v % of inoculum was added to 100 mL medium volume in 500 mL baffled shake flasks. Conditions for the treatments included 37° C. throughout the experiment and 250 rpm agitation. Sodium salicylate (0, 1 mM or 2 mM) was added 1 hour following inoculation. At 0.45-0.6 OD600 nm induction of the monatin operon genes was initiated. IPTG at 0.5 mM was used for induction, and additions at the time of induction included 0.5 mM pyridoxine hydrochloride and 0.04 mM pyridoxal-5′-phosphate (“PLP”). Additions of 1 g L-tryptophan, 5 g/L sodium pyruvate and 10 μg/mL ampicillin were made 3 hours following induction. Samples for monatin and dry cell weight determination were taken at 23.5 and 48 hours.
Monatin analysis was conducted as described in Example 13.

Another test concerns E. coli BL21DE3 AP pET32. Briefly: Monatin excretion with Tween 20, E. coli BL21DE3 with or without Arabidopsis auxin transporter gene. In kind it is cell-based, Escherichia coli. Particulars: 0.2% Tween 20. The protocol:
For inoculum preparation, the E. coli strains were grown overnight at 37° C. and 250 rpm in Luria-Bertani (“LB”) medium with 100 μg/mL ampicillin and 50 μg/mL kanamycin. For the experimental treatments, Trp-1+glucose medium, a minimal medium that has been used for increased production of tryptophan in E. coli cells (Zeman, et al. Folia Microbiol. 35:200-204, (1990)), was prepared as follows. To 800 mL nanopure water the following reagents were added: 2 g (NH4)2SO4 and 13.6 g KH2PO4. The pH was adjusted to 7.0, the volume was increased to 948 mL, and the medium was autoclaved. Following sterilization, 0.2 g MgSO4.7H2O, 0.01 g CaCl2.2H2O, and 0.5 mg FeSO4.7H2O were added to the medium in a 1.8 mL volume followed by addition of 0.2 mL of Neidhardt's micronutrient solution. Neidhardt F. C., et al., “Culture medium for Enterobacteria,” J. Bacteriol. 119:736-746, (1974). Neidhardt's medium includes (per liter): 0.18 g (NH4)6(MO7)24.4H2O, 1.24 g H3BO3, 0.36 g CoCl2.6H2O, 0.12 g CuSO4 (anhydrous), 0.8 g MnCl2.4H2O, and 0.14 g ZnSO4.7H2O. A 50% glucose solution was prepared separately and sterile-filtered. Forty mL of glucose solution and 10 mL of 1 M 3-Morpholinopropanesulfonic acid (“MOPS”) buffer were added to the base medium (950 mL) for a 1 L final volume.
Conditions for the treatments included 250 rpm agitation throughout and 37° C. up to induction, then, 30° C. following induction. At 0.54-0.62 OD600 nm, induction of the plasmid genes was initiated. At induction, 1.0 mM IPTG, 0.5% L-arabinose, 0.5 mM pyridoxine hydrochloride, and 0.2 mLs of Balch's vitamins were added. Additions of 10 g/L L-tryptophan, 10 g/L sodium pyruvate, 0.04 mM pyridoxal-5′-phosphate (“PLP”) and 0 or 0.2% Tween® 20 (polyoxyethylene 20-sorbitan monolaurate) were made 3 hours following induction.

Test [2] concerns C. glutamicum 13032 transformed with aspCProA pEKEX-2. Briefly: Monatin efflux with increased temperature and sodium pyruvate. In kind it is cell-based, Corynebacterium glutamicum. How it is done:
(§1) Microbiol 151:342-347, (1989). […] The pH was adjusted to 7.0.
Conditions for treatments included 30° or 35° C. throughout the experiment and 250 rpm agitation. At an OD600 nm, between 0.45-0.51, induction of the monatin operon genes was initiated. […] Additions of 1.0 g L-tryptophan, 10 or 15 g/L sodium pyruvate, 0.04 mM pyridoxal-5′-phosphate (“PLP”), were made 3 hours and also at 24 hours following induction. A total of 20 or 30 g/L sodium pyruvate was added to each flask by adding 10 or 15 g/l at each of the two feeding times.

The test system of test [3] is C. glutamicum ATCC 13032 transformed with aspCProA pEKEX-2. Briefly: Monatin efflux with biotin and ampicillin treatments. In kind it is cell-based, Corynebacterium glutamicum. How it is done:
C. glutamicum ATCC 13032 strains transformed with aspCProA pEKEX-2 were grown overnight in LB medium supplemented with 50 μg/mL kanamycin incubated at 30° C. and shaking at 250 rpm. […] Microbiol 151:342-347, (1989). […] The pH was adjusted to 7.0.
Additions of 1.0 g L-tryptophan and 5 g/L sodium pyruvate and ampicillin (either 0 or 10 μg/ml) were made 3 hours following induction.

The subject of test [4] is E. coli MG1655 ΔAcrAB 6-16::aspCproAproNde. Briefly: AcrAB k.o. validation: growth (OD 600 nm) with novobiocin / sodium decanoate, knockout strain. In kind it is cell-based, Escherichia coli. How it is done: (§2) Single chloramphenicol-resistant colonies were purified by restreaking on appropriate selective media and single colonies were tested by PCR as previously described for the BW25113 knockout strains, to verify the presence of the emrB and acrAB knockouts. The effects of the emrB and acrAB knockouts on the EmrAB and AcrAB transporter systems respectively were determined by assessing the phenotype of the transport mutants using appropriate antibiotics and comparison to wild type control microorganisms as shown in Table 3.1 and Table 3.2 below.

The test system of test [5] is E. coli MG1655::aspCproApProNde (control). Briefly: AcrAB k.o. validation: growth (OD 600 nm) with novobiocin / sodium decanoate, control strain. In kind it is cell-based, Escherichia coli. The protocol: as §2
Test [6] relates to C. glutamicum 13032::aspC/proA/pEKEX2-2. The experiment in a line: Monatin excretion using ethambutol. The class given is cell-based, Corynebacterium glutamicum. How it is done:
as §1
Conditions for the treatments included 30° C. throughout the experiment and 250 rpm agitation. Ethambutol (10 mg/L) was added either prior to inoculation of shake flasks or at the first feeding time when tryptophan and pyruvate were added. […] Additions of 1 g L-tryptophan, 10 g/L sodium pyruvate, 0.04 mM pyridoxal-5′-phosphate (“PLP”), were made 3 hours following induction.

Setting [7] is: Arabidopsis auxin transporter gene on pProNde del, n = 3.
Where [8] appears, read: no auxin transporter gene on pProNde del, n = 3.
Where [9] appears, read: Ampicillin 10 μg/mL, Biotin 1 μg/L.
[10] abbreviates: Ampicillin 10 μg/mL, Biotin 200 μg/L.
Where [11] appears, read: 40 or 80 ppm novobiocin, no sodium decanoate.
[12] abbreviates: novobiocin 40 ppm, sodium decanoate 0 mM.
[13] abbreviates: novobiocin 40 ppm, sodium decanoate 2.5 mM.
The mark [14] stands for this setting: novobiocin 80 ppm, sodium decanoate 0 mM.
The mark [15] stands for this setting: novobiocin 80 ppm, sodium decanoate 2.5 mM.
Where [16] appears, read: ethambutol 10 mg/L with 0.2% Tween 20 and 10 μg/ml ampicillin, n = 2.
The mark [17] stands for this setting: ethambutol 10 mg/L, another 10 g/L sodium pyruvate at 24 hours, n = 2.
Setting [18] is: Biotin 200 μg/L, Ampicillin 0 μg/mL.

Like-named read-outs stand apart in the source and are kept apart here. Marks after values point to notes of the source that are not given here.

Regarding `O=C([O-])c1ccccc1O.[Na+]` [sodium salicylate, Sodium salicylate], the “increase in monatin transported” value in test [1] (1 mM or 2 mM sodium salicylate, 23.5 hours) is “seventy percent increase”. In addition, the “increase in monatin efflux” value in test [1] (1 mM or 2 mM sodium salicylate, 48 hours) is “seven percent increase”. Moreover, in test [1] (1 mM sodium salicylate), the “Monatin/dcw, 23.5 hours” value was 7.41 mg/g and the “Monatin/dcw, 48 hours” value was 9.94 mg/g. Moreover, in test [1] (2 mM sodium salicylate), the “Monatin/dcw, 23.5 hours” value was 7.54 mg/g and the “Monatin/dcw, 48 hours” value was 9.82 mg/g.
Consider “polyoxyethylene 20-sorbitan monolaurate [Tween ® 20]”, for which the “Monatin/dry cell wt., 30 hours” value is reported as 26.7* mg/g in the test with E. coli BL21DE3 AP pET32 (Arabidopsis auxin transporter gene on pProNde del, n = 2) and 2.5 mg/g with E. coli BL21DE3 AP pET32 (setting [8]). Further, the results for the “Monatin/dry cell wt., 24 hours” value in the test on E. coli BL21DE3 AP pET32 (setting [7]) and in the test with E. coli BL21DE3 AP pET32 (setting [8]) were 29.4 mg/g and 2.2 mg/g, respectively. Further, the results for the “Monatin/dry cell wt., 48 hours” value with E. coli BL21DE3 AP pET32 (setting [7]) and with E. coli BL21DE3 AP pET32 (setting [8]) were 19.7 mg/g and 2.2 mg/g, respectively.
`CC(=O)C(=O)[O-].[Na+]` [pyruvate, sodium pyruvate]: the “Monatin/dry cell weight, 24 hours” value in test [2] (30° C., 20 g/L pyruvate) is 0.2 mg/g; in test [2] (30° C., 30 g/L pyruvate) it was 0.3 mg/g; in test [2] (35° C., 20 g/L pyruvate), 5.4 mg/g; in test [2] (35° C., 30 g/L pyruvate), 5.8 mg/g. Moreover, the “Monatin/dry cell weight, 31 hours” value in test [2] (30° C., 20 g/L pyruvate) was found to be 2.1 mg/g; in test [2] (30° C., 30 g/L pyruvate) it was 1.8 mg/g; in test [2] (35° C., 20 g/L pyruvate), 14.7 mg/g; in test [2] (35° C., 30 g/L pyruvate), 18.1 mg/g. Also, the “Monatin/dry cell weight, 48 hours” value in test [2] (30° C., 20 g/L pyruvate) was 2.7 mg/g; in test [2] (30° C., 30 g/L pyruvate), 4.3 mg/g; in test [2] (35° C., 20 g/L pyruvate), 23.5 mg/g; in test [2] (35° C., 30 g/L pyruvate), 29.4 mg/g. Moreover, the “Monatin/dry cell weight, 54 hours” value was 2.7 mg/g in test [2] (30° C., 20 g/L pyruvate); 4.7 mg/g in test [2] (30° C., 30 g/L pyruvate); 23.8 mg/g in test [2] (35° C., 20 g/L pyruvate); 35.2 mg/g in test [2] (35° C., 30 g/L pyruvate).
With `CC1(C)S[C@@H]2[C@H](NC(=O)[C@H](N)c3ccccc3)C(=O)N2[C@H]1C(=O)O` [Ampicillin, ampicillin], in test [3] (setting [9]), the “Monatin/dry cell weight, 24 hours” value stood at 16.2 mg/g and the “Monatin/dry cell weight, 48 hours” value was determined as 13.5 mg/g. Besides, in test [3] (setting [10]), the “Monatin/dry cell weight, 24 hours” value was 12.1 mg/g and the “Monatin/dry cell weight, 48 hours” value was 9.3 mg/g.
`CO[C@@H]1[C@@H](OC(N)=O)[C@@H](O)[C@H](Oc2ccc3c(O)c(NC(=O)c4ccc(O)c(CC=C(C)C)c4)c(=O)oc3c2C)OC1(C)C` [novobiocin]: the growth entry in test [4] (setting [11]) was “growth is completely inhibited”; in test [5] (0, 40 or 80 ppm novobiocin, in the presence of sodium decanoate), “grew to similar optical densities”; in test [5] (setting [11]), “only slight inhibition of growth”. Besides, the “OD 600 nm at 19 hours” value in test [4] (setting [12]) stood at 0.007; in test [4] (setting [13]), 0.008; in test [4] (setting [14]), 0.006; in test [4] (setting [15]), 0.008; in test [5] (setting [12]), 1.407; in test [5] (setting [13]), 1.395. The “OD 600 nm at 19 hours” value in test [5] (setting [14]) worked out at 0.793; in test [5] (setting [15]), 1.374.
Consider `CC[C@@H](CO)NCCN[C@@H](CC)CO` [ethambutol], for which the “greater monatin excreted per dry cell weight” value in test [6] (Tween/ampicillin treatment with 10 mg/L ethambutol vs same treatment without ethambutol, 48 hours) stood at 12 fold. Besides, in test [6] (setting [16]), the “Monatin/dry cell weight, 24 hours” value worked out at 6.94 mg/g; the “Monatin/dry cell weight, 30 hours” value worked out at 8.80 mg/g; the “Monatin/dry cell weight, 48 hours” value came out at 9.14 mg/g. Also, in test [6] (setting [17]), the “Monatin/dry cell weight, 24 hours” value was 1.04 mg/g; the “Monatin/dry cell weight, 31 hours” value is listed as 1.53 mg/g; the “Monatin/dry cell weight, 48 hours” value is 2.19 mg/g. In addition, in test [6] (ethambutol 10 mg/L, n = 2), the “Monatin/dry cell weight, 24 hours” value was determined as 1.16 mg/g; the “Monatin/dry cell weight, 31 hours” value is given as 1.15 mg/g; the “Monatin/dry cell weight, 48 hours” value was 1.06 mg/g.
On to `O=C(O)CCCC[C@@H]1SC[C@@H]2NC(=O)N[C@@H]21` [Biotin, biotin], for which the “Monatin/dry cell weight, 48 hours” value in test [3] (Biotin 1 μg/L, Ampicillin 0 μg/mL) is 4.5 mg/g; in test [3] (setting [18]), 1.7 mg/g. In addition, the “Monatin/dry cell weight, 24 hours” value in test [3] (Biotin 1 μg/L, Ampicillin 0 μg/mL, n = 1) is recorded as 1.9* mg/g; in test [3] (setting [18]), 0.9 mg/g.
